The test concerns the target CT-L activity of purified 20S proteasome (Homo sapiens, UniProt P20618+P28074). The experiment in a line: in vitro CT-L activity of purified 20S proteasome. Format: biochemical. The note with it: for Screening Results (% Inhibition @ 10 μM) Chymotrypsin-like / inhibition at 10 µM: Table 5, @ 10 μM; for inhibition at 10 µM: read-out: Screening Results (% Inhibition @ 10 μM) Chymotrypsin-like.

Where [1] appears, read: Table 5, read-out: IC50 (μM) Chymotrypsin-like.

Several values for one entry are separate records, joined by “and”; a condition that tells them apart may be missing. Equal entries are not always repeated. Where two headings read alike, the source gives them in different places.

Consider 49 compounds from US9878999B2, “Proteasome chymotrypsin-like inhibition using PI-1833 analogs” (H. Lee Moffitt Cancer Center and Research Institute, Inc., priority 2011, dated 2018).

As usually defined, the IC50 is the concentration that inhibits the measured activity by half. One may read the inhibition as the drop in the measured response relative to a control, in per cent.

With `CC(C)N(Cc1nc(-c2cccnc2)no1)C(=O)c1cc2ccccc2o1` [SO3-029], the IC50 (Table 10, read-out: IC50 (μM) CT-L) came to 0.379 ± 0.063 µM.

On to `Cc1ccc(OCC(=O)N(Cc2nc(-c3ccc(C)cc3)no2)CC(C)C)cc1` [compound 36], for which the “CT-L inhibitory activity, in words” value is given as “loss of CT-L proteasome activity”. The IC50 (Table 7, 20S CT-L proteasome activity, read-out: IC50 (μM) CT-L) worked out at 2.37 ± 0.4 µM.

Take `CC(C)N(Cc1nc(-c2ccccc2)no1)C(=O)CCc1ccc(C(F)(F)F)cc1` [compound 41]: the “CT-L inhibitory activity, in words” value is “activity was diminished”.

Consider `Cc1ccc(CNC(=O)N(Cc2nc(-c3ccccc3)no2)C(C)C)cc1` [compound 43], for which the “CT-L inhibitory activity, in words” value is listed as “loss of CT-L activity”.

On to `Cc1ccc(OCC(=O)N(Cc2nc(-c3ccc(C)cc3)no2)C(C)C)cc1` [drawing 108], for which the “Screening Results (% Inhibition @ 10 μM) Chymotrypsin-like” value was 74% and 67% and 71%; the inhibition at 10 µM worked out at 73%. Further, under setting [1], the IC50 stood at 0.65 ± 0.38 µM.

As for `Cc1ccc(OCC(=O)N(Cc2nc(-c3ccc(C)cc3)no2)CC(C)C)cc1` [drawing 111], the IC50 under setting [1] worked out at 2.37 ± 0.4 µM.

With `Cc1ccc(OCC(=O)N(Cc2nc(-c3ccc(C(F)(F)F)cc3)no2)C(C)C)cc1` [drawing 112], under setting [1], the IC50 amounted to 0.97 ± 0.15 µM.

In the case of `Cc1ccc(OCC(=O)N(Cc2nc(-c3ccc(Cl)cc3)no2)C(C)C)cc1` [drawing 113], the IC50 under setting [1] is 0.45 ± 0.15 µM.

Consider `CC(C)N(Cc1nc(-c2ccc(Cl)cc2)no1)C(=O)COc1ccc(C(F)(F)F)cc1` [drawing 114], for which, under setting [1], the concentration for half-maximal inhibition (IC50) is 0.58 µM and 0.857 µM.

As for `CC(C)N(Cc1nc(-c2ccc(C(F)(F)F)cc2)no1)C(=O)COc1ccc(C(F)(F)F)cc1` [drawing 115], the 50% inhibitory concentration (IC50) under setting [1] worked out at 2.53 ± 0.95 µM.

On to `CC(C)N(Cc1nc(-c2ccccc2)no1)C(=O)COc1ccc(C(F)(F)F)cc1` [drawing 116], for which, under setting [1], the IC50 turned out to be 0.43 ± 0.12 µM.

For `Cc1ccc(OCC(=O)N(Cc2nc(-c3ccccc3)no2)C(C)C)cc1` [drawing 117], the concentration for half-maximal inhibition (IC50) under setting [1] amounted to 0.31 µM.

In the case of `Cc1ccc(-c2noc(CN(C(=O)COc3ccc(C(F)(F)F)cc3)C(C)C)n2)cc1` [drawing 118], the IC50 under setting [1] turned out to be 1.08 ± 0.33 µM.

Consider `CC(C)N(Cc1nc(-c2ccc(Cl)cc2)no1)C(=O)COc1ccc(Cl)cc1` [drawing 119], for which the IC50 under setting [1] stood at 1.07 ± 0.05 µM.

In the case of `CC(C)N(Cc1nc(-c2ccc(C(F)(F)F)cc2)no1)C(=O)COc1ccc(Cl)cc1` [drawing 120], the IC50 under setting [1] is 1.4 ± 0.185 µM.

As to `CC(C)N(Cc1nc(-c2ccccc2)no1)C(=O)COc1ccc(Cl)cc1` [drawing 121], the IC50 under setting [1] amounted to 0.51 ± 0.16 µM.

On to `Cc1ccc(OCC(=O)N(C)Cc2nc(-c3ccc(C)cc3)no2)cc1` [drawing 122], for which the IC50 under setting [1] is 29.9 ± 3.9 µM.

Take `Cc1ccc(-c2noc(CN(C(=O)COc3ccc(Cl)cc3)C(C)C)n2)cc1` [drawing 123]: the half-maximal inhibitory concentration (IC50) under setting [1] came out at 1.12 ± 0.33 µM.

As for `Cc1ccc(-c2noc(CN(C(=O)COc3ccccc3)C(C)C)n2)cc1` [drawing 124], the IC50 under setting [1] was found to be 8.47 ± 0.59 µM.

For `CC(C)N(Cc1nc(-c2ccc(C(F)(F)F)cc2)no1)C(=O)COc1ccccc1` [drawing 126], the concentration for half-maximal inhibition (IC50) under setting [1] amounted to 15.1 ± 6.94 µM.

On to `CC(C)N(Cc1nc(-c2ccccc2)no1)C(=O)COc1ccccc1` [drawing 127], for which the half-inhibitory concentration (IC50) under setting [1] came to 6.22 ± 1.11 µM.

In the case of `CCN(Cc1nc(-c2ccc(C)cc2)no1)C(=O)COc1ccc(C)cc1` [drawing 128], the IC50 under setting [1] came out at 8.98 ± 5.21 µM.

As to `Cc1ccc(CNC(=O)N(Cc2nc(-c3ccccc3)no2)C(C)C)cc1` [drawing 129], the inhibition at 10 µM is -8.75 ± 17.4%.

As for `CC(C)N(Cc1nc(-c2ccccc2)no1)C(=O)CCc1ccc(C(F)(F)F)cc1` [drawing 130], the IC50 under setting [1] was 44 ± 20.9 µM.

For `CC(C)N(Cc1nc(-c2ccccc2)no1)C(=O)COc1ccc(F)cc1` [drawing 131], the half-maximal inhibitory concentration (IC50) under setting [1] came out at 8.73 ± 3.05 µM.

Turning to `CC(C)N(Cc1nc(-c2ccccc2)no1)C(=O)COc1ccc(-c2ccccc2)cc1` [drawing 132], the inhibition at 10 µM is < 70%.

Take `CC(C)N(Cc1nc(-c2ccccc2)no1)C(=O)COc1ccc2cc(Br)ccc2c1` [drawing 133]: the inhibition at 10 µM is < 70%.

For the compound `CCc1ccc(OCC(=O)N(Cc2nc(-c3ccccc3)no2)C(C)C)cc1` [drawing 134], the IC50 under setting [1] was 0.267 ± 0.05 µM.

Take `O=C(COc1ccc(C(F)(F)F)cc1)N(Cc1nc(-c2ccccc2)no1)C1CC1` [drawing 135]: the “Screening Results (% Inhibition @ 10 μM) Chymotrypsin-like” value is 35.35% and 33.80%; the inhibition at 10 µM came to 27.3%. Under setting [1], the concentration for half-maximal inhibition (IC50) is 6.37 µM.

Take `Cc1cccc(OCC(=O)N(Cc2nc(-c3ccccc3)no2)C(C)C)c1` [drawing 136]: the inhibition at 10 µM was < 70%.

With `Cc1ccc(OCC(=O)N(Cc2nc(-c3ccccn3)no2)C(C)C)cc1` [drawing 138], the IC50 under setting [1] was 3.75 ± 1.47 µM.

As for `Cc1ccc(OCC(=O)N(Cc2nc(-c3ccccc3)no2)C(C)C)cc1` [drawing 139], the concentration for half-maximal inhibition (IC50) under setting [1] was 0.22 ± 0.084 µM.

Consider `CC(C)N(Cc1nc(-c2ccccc2)no1)C(=O)COc1ccc(C(=O)OC(C)(C)C)cc1` [drawing 141], for which the inhibition at 10 µM was -62 ± 26.3%.

For the compound `Cc1ccc(OCC(=O)N(Cc2nc(-c3ccc(C)cc3)no2)C(C)(C)C)cc1` [drawing 142], the inhibition at 10 µM was -108 ± 119%.

Regarding `CC(C)N(Cc1nc(-c2ccccc2)no1)C(=O)COc1ccc(C(=O)O)cc1` [drawing 143], the “Screening Results (% Inhibition @ 10 μM) Chymotrypsin-like” value was 27.76 ± 20.83 (n = 5) %.

As to `Cc1ccc(OCC(=O)N(CCc2nc(-c3ccccc3)no2)C(C)C)cc1` [drawing 144], the inhibition at 10 µM was 31.4 ± 11.2%.

As for `CCc1ccc(OCC(=O)N(Cc2nc(-c3cccnc3)no2)C(C)C)cc1` [drawing 145], the IC50 under setting [1] turned out to be 0.099 ± 0.032 µM.

Take `CC(C)CC(NC(=O)c1ccc(OCC(=O)N(Cc2nc(-c3ccccc3)no2)C(C)C)cc1)C(=O)O` (stereo not shown) [drawing 146]: the “Screening Results (% Inhibition @ 10 μM) Chymotrypsin-like” value is listed as −174.75 ± 134.18 (n = 5) %.

Turning to `Cc1ccc(OCC(=O)N(Cc2nc(-c3ccncc3)no2)C(C)C)cc1` [drawing 147], the inhibition at 10 µM is 95.72 ± 0.88%. Further, the IC50 under setting [1] was found to be 0.37 ± 0.046 µM.

In the case of `Cc1ccc(NCC(=O)N(Cc2nc(-c3ccccc3)no2)C(C)C)cc1` [drawing 148], the inhibition at 10 µM was found to be 81.5 ± 2.77%. In addition, under setting [1], the half-inhibitory concentration (IC50) turned out to be 5.67 ± 0.96 µM.

As for `Cc1ccc(OCC(=O)N(Cc2nc3ccccc3[nH]2)C(C)C)cc1` [drawing 151], the inhibition at 10 µM turned out to be 80.4 ± 3.04%. Besides, under setting [1], the IC50 amounted to 12.5 ± 2.96 µM.

Take `CC(C)CC(NC(=O)c1ccc(OCC(=O)N(Cc2nc(-c3ccccc3)no2)C(C)C)cc1)C(=O)O` (stereo not shown) [drawing 153]: the “Screening Results (% Inhibition @ 10 μM) Chymotrypsin-like” value was −149.24 ± 157.49 (n = 5) %.

For `Cc1ccc(OCC(=O)N(Cc2nc(-c3ccccc3)no2)C(C)C)cn1` [drawing 154], the inhibition at 10 µM is 70.6 ± 5.09%. Also, the 50% inhibitory concentration (IC50) under setting [1] turned out to be 4 ± 0.89 µM.

In the case of `CC(C)N(Cc1nc(-c2cccnc2)no1)C(=O)COc1ccc(O)cc1` [drawing 155], the inhibition at 10 µM is 78.4 ± 6.33%. Also, under setting [1], the IC50 stood at 0.98 ± 0.5 µM.

`CC(C)N(Cc1nc(-c2ccccc2)no1)C(=O)COc1ccc(O)cc1` [drawing 156]: the inhibition at 10 µM was -5.85 ± 23.4%. Further, the half-maximal inhibitory concentration (IC50) under setting [1] was 10.1 ± 4.52 µM.

`CCCc1ccc(OCC(=O)N(Cc2nc(-c3cccnc3)no2)C(C)C)cc1` [drawing 157]: the inhibition at 10 µM worked out at 92.3 ± 2.19%. The IC50 under setting [1] was found to be 0.032 ± 0.00015 µM.

Take `CCCCc1ccc(OCC(=O)N(Cc2nc(-c3cccnc3)no2)C(C)C)cc1` [drawing 159]: the IC50 under setting [1] was found to be 0.039 ± 0.011 µM.

`CC(C)N(Cc1nc(-c2cccnc2)no1)C(=O)c1cc2ccccc2o1` [drawing 160]: under setting [1], the IC50 stood at 0.379 ± 0.063 µM.

For `CC(C)N(Cc1nc(-c2cccnc2)no1)C(=O)COc1ccccc1` [drawing 161], the IC50 under setting [1] is 3.12 ± 1.11 µM.
